From patent US20130023504A1, “Modulation of Prostaglandin/Cyclooxygenase Metabolic Pathways” (HUNTER-FLEMING LIMITED, priority 2006, published 2013)
Marks after values point to notes of the source that are not given here.

How the values were obtained:
Assay type in all cases: cell-based
Details in all cases: without TNF-α
[1] = system: COX-2 mRNA; experiment: COX-2 mRNA in human PBMC with and without TNF-α, quantitative RT-PCR
Procedure: (§1) Whole blood was collected from donors in EDTA-supplemented pouches at the Etablissement Français du Sang (Brest, France). The PBMC were isolated then from whole blood under sterile conditions within 36 hours after collection. Gradient density centrifugation was carried out on Ficoll (Eurobio). After washing in RPMI 1640 medium (Eurobio), cells were suspended in RPMI 1640 medium supplemented with 10% heat-inactivated fetal calf serum (Eurobio), 2 mM glutamine (D. Dutscher), 100 U of penicillin/ml (D. Dutscher), and 100 μg of streptomycin/ml (D. Dutscher). Monocytes were selected by plastic adherence for 1 h and approximately 10^7 cells were plated in 6-well tissue culture plates (3 mL medium per well). All incubations were performed in a humidified incubator at 37° C. and 5% CO2. Cells were recovered and dispersed in 2 ml fresh incubation medium supplemented with either 7β-hydroxyEPIA, 7β-hydroxy-DHEA, or 7α-hydroxy-DHEA (in 20 μL ethanol) in the presence or absence of 0.01 μg/mL TNF-α (Sigma-Aldrich). Control incubations contained 20 μl ethanol but no steroid. Supernatants were collected after 4 h and 24 hours incubations for measurement of their PG contents and cells were used for subsequent RNA isolation. A single step extraction method using the Trizol Reagent (Invitrogen, Cergy-Pontoise, France) provided total RNA.
(§2) cDNAs were synthesized from TURBO DNase I—treated RNA (Ambion, Huntingdon, UK) using the Superscript first strand synthesis system kit (Invitrogen). RT-PCR amplification mixtures (50 μL) contained 2.5× RealMaster Mix/20×SYBR solution (11.25 μL) (Eppendorf, Le Pecq, France) and 200 nM forward and reverse primers. Reactions were run on a RealPlex ep gradient S mastercycler (Eppendorf). The cycling conditions were 10 minutes at 95° C. and 45 cycles at 95° C., 55° C. and 68° C. for 15 seconds, 30 seconds and 30 seconds, respectively. Each assay included a standard curve of four serial dilution points of control cDNA. The HPRT1 housekeeping gene was used for quantification. All oligonucleotide primers (Table 2) were synthesized by Genecust/Distribio (Evry, France). The specificity of the amplified product was monitored by examining the melting curve of the product and confirmed by analysis on agarose gel electrophoresis.
(§3) All assays were carried out in triplicate and results were plotted as mean±S.E.M. One-way analysis of variance was performed followed by Duncan's multiple range tests in order to compare the differences between groups. Differences were considered statistically significant when p<0.05.

[2] = system: human PBMC; experiment: PG levels (PGE2, PGD2, 15d-PGJ2) in culture medium of human PBMC cultured with and without TNF-α, EIA (Example 3)
Procedure: as §1
Commercially available EIA kits were used for the determination of PGE2 levels (Oxford Biomedical Research, UK) and 15d-PGJ2 levels (Assay designs, Euromedex, France) in culture media. Measurement of PGD2 levels was obtained using the prostaglandin D2-MOX EIA kit (Cayman Chemical, Euromedex). In this case, and prior to assay, the fresh samples were immediately treated with the MOX-HCl reagent, which converted PGD2 into PGD2-MOX, thus preventing any further chemical degradation.
as §3

[3] = system: m-PGES1 mRNA; experiment: m-PGES1 mRNA in human PBMC with and without TNF-α, quantitative RT-PCR
Procedure: as §1, §2, §3

Q: For `CC12CCC3C(C1CCC2=O)[C@@H](O)C=C1C[C@@H](O)CCC13C` (stereo partly drawn) [7β-hydroxy-DHEA], which “COX-2 (mRNA), mRNA production relative to controls” value ([1]; 1 nM, 4 h) is on record?
A: 1.20 ± 0.179

Q: What about the “COX-2 (mRNA), mRNA production relative to controls” value ([1]; 1 nM, 24 h) of the same compound?
A: 1.76 ± 0.672

Q: What about the “COX-2 (mRNA), mRNA production relative to controls” value ([1]; 10 nM, 4 h) of the same compound?
A: 1.33 ± 0.039

Q: And the “COX-2 (mRNA), mRNA production relative to controls” value ([1]; 10 nM, 24 h)?
A: 1.54 ± 0.630

Q: And the “COX-2 (mRNA), mRNA production relative to controls” value ([1]; 100 nM, 4 h)?
A: 5.09 ± 1.166^a

Q: What about the “COX-2 (mRNA), mRNA production relative to controls” value ([1]; 100 nM, 24 h) of the same compound?
A: 2.78 ± 0.580^a

Q: What about the 15d-PGJ2 ([2]; 1 nM, 4 h) of the same compound?
A: 0.45 ± 0.016 ng/mL

Q: And the PGD2 ([2]; 1 nM, 4 h)?
A: 0.18 ± 0.002 ng/mL

Q: And the PGE2 ([2]; 1 nM, 4 h)?
A: 0.22 ± 0.003 ng/mL

Q: What about the 15d-PGJ2 ([2]; 1 nM, 24 h) of the same compound?
A: 0.66 ± 0.013^a ng/mL

Q: What about the PGD2 ([2]; 1 nM, 24 h) of the same compound?
A: 0.21 ± 0.009^a ng/mL

Q: What about the PGE2 ([2]; 1 nM, 24 h) of the same compound?
A: 0.22 ± 0.003 ng/mL

Q: What about the 15d-PGJ2 ([2]; 10 nM, 4 h) of the same compound?
A: 0.40 ± 0.014 ng/mL

Q: And the PGD2 ([2]; 10 nM, 4 h)?
A: 0.14 ± 0.001 ng/mL

Q: What about the PGE2 ([2]; 10 nM, 4 h) of the same compound?
A: 0.22 ± 0.013 ng/mL

Q: What about the 15d-PGJ2 ([2]; 10 nM, 24 h) of the same compound?
A: 0.62 ± 0.008^a ng/mL

Q: What about the PGD2 ([2]; 10 nM, 24 h) of the same compound?
A: 0.24 ± 0.001^a ng/mL

Q: And the PGE2 ([2]; 10 nM, 24 h)?
A: 0.24 ± 0.002 ng/mL

Q: What about the 15d-PGJ2 ([2]; 100 nM, 4 h) of the same compound?
A: 0.42 ± 0.030 ng/mL

Q: And the PGD2 ([2]; 100 nM, 4 h)?
A: 0.19 ± 0.008 ng/mL

Q: What about the PGE2 ([2]; 100 nM, 4 h) of the same compound?
A: 0.22 ± 0.002 ng/mL

Q: And the 15d-PGJ2 ([2]; 100 nM, 24 h)?
A: 0.56 ± 0.020^a ng/mL

Q: What about the PGD2 ([2]; 100 nM, 24 h) of the same compound?
A: 0.34 ± 0.025^a ng/mL

Q: What about the PGE2 ([2]; 100 nM, 24 h) of the same compound?
A: 0.24 ± 0.004 ng/mL

Q: What about the “mPGES1 (mRNA), mRNA production relative to controls” value ([3]; 1 nM, 4 h) of the same compound?
A: 0.43 ± 0.057^b

Q: And the “mPGES1 (mRNA), mRNA production relative to controls” value ([3]; 1 nM, 24 h)?
A: 1.94 ± 0.422^a

Q: What about the “mPGES1 (mRNA), mRNA production relative to controls” value ([3]; 10 nM, 4 h) of the same compound?
A: 0.67 ± 0.071^b

Q: And the “mPGES1 (mRNA), mRNA production relative to controls” value ([3]; 10 nM, 24 h)?
A: 1.64 ± 0.338^a

Q: What about the “mPGES1 (mRNA), mRNA production relative to controls” value ([3]; 100 nM, 4 h) of the same compound?
A: 0.82 ± 0.085^b

Q: And the “mPGES1 (mRNA), mRNA production relative to controls” value ([3]; 100 nM, 24 h)?
A: 1.64 ± 0.322^a
